{
  "source": "patent US9345733B1",
  "about": "“Supplement composition for supporting telomere maintenance and protection and method of use” (CELLHEALTH TECHNOLOGIES LTD., priority 2011, dated 2016)",
  "origin": "cited, not measured here",
  "key": {"TNF-a [1]": {"test_system": "TNF-a", "details": "hypertensive rats"}, "[2]": {"test_system": "diseased endothelial cells", "details": "chronic exposure; via activation of hTERT and transient telomere stabilization"}, "alveolar macrophages": {"test_system": "alveolar macrophages", "details": "alveolar macrophages in idiopathic pulmonary fibrosis in vitro"}, "[3]": {"test_system": "endothelial nitric oxide synthase", "details": "human aortic endothelial cells"}, "[4]": {"test_system": "endothelial nitric oxide synthase", "details": "HUVEC, at nanomolar concentrations"}, "[5]": {"test_system": "vascular smooth muscle cells", "details": "stimulated by tumor necrosis factor-alpha"}, "[6]": {"test_system": "human arterial smooth muscle cells (HASMCs)"}, "[7]": {"test_system": "endothelial progenitor cells", "details": "in culture"}, "NF-κB and TNF-a": {"test_system": "NF-κB and TNF-a", "details": "peripheral blood mononuclear cells of asthma patients, in-vitro"}, "[8]": {"test_system": "endothelial progenitor cells"}, "TNF-a [9]": {"target": "TNF-a (Homo sapiens, UniProt P01375)", "sequence (P01375 77-233 limits assumed, species assumed)": "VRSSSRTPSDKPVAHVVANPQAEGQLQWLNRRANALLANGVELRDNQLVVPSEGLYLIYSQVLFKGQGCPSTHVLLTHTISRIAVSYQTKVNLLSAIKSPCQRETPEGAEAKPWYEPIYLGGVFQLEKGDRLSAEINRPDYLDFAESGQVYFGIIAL"}, "[10]": {"test_system": "IL-23p19, IFN-y, TNF-a, IL-6, MCP-1", "details": "ileum of treated animals"}, "[11]": {"test_system": "chronic colonic inflammation", "details": "mice, dietary supplementation; reductions of TNF-a and IL-1β, increase of IL-10"}, "[12]": {"test_system": "human peripheral blood mononuclear cells", "details": "stimulated human peripheral blood mononuclear cells in vitro"}},
  "note": "Like-named read-outs stand apart in the source and are kept apart here.",
  "data": [
    {"smiles": "CC(=O)N[C@@H](CS)C(=O)O", "note": "[N-acetylcysteine]", "values": [
      {"measurement": "progression of cardiac injury", "setting": "TNF-a [1]", "value": "hinders"},
      {"measurement": "serum TNF-a level", "setting": "TNF-a [1]", "value": "normalizes"},
      {"measurement": "senescence of diseased endothelial cells", "setting": "[2]", "value": "can delay senescence"},
      {"measurement": "TNF-a, sTNFR, and TGF-beta1 release", "setting": "alveolar macrophages", "value": "inhibits"},
      {"measurement": "deleterious effect of TNF-a on calcium transients and contraction", "setting": "adult rat cardiomyocytes", "value": "prevents"}
    ]},
    {"smiles": "CC(C)=CCC[C@](C)(O[C@@H]1O[C@H](CO[C@@H]2O[C@H](CO)[C@@H](O)[C@H](O)[C@H]2O)[C@@H](O)[C@H](O)[C@H]1O)[C@H]1CC[C@]2(C)[C@@H]1[C@H](O)C[C@@H]1[C@@]3(C)CC[C@H](O[C@@H]4O[C@H](CO)[C@@H](O)[C@H](O)[C@H]4O[C@@H]4O[C@H](CO)[C@@H](O)[C@H](O)[C@H]4O)C(C)(C)[C@@H]3CC[C@]12C", "note": "[ginsenoside Rb1]", "values": [
      {"measurement": "endothelial nitric oxide synthase-Ser1177 phosphorylation and nitric oxide production", "setting": "[3]", "value": "acutely induces"}
    ]},
    {"smiles": "CC(C)=CCC[C@](C)(O[C@@H]1O[C@H](CO)[C@@H](O)[C@H](O)[C@H]1O)[C@H]1CC[C@]2(C)[C@@H]1[C@H](O)C[C@@H]1[C@@]3(C)CC[C@H](O)C(C)(C)[C@@H]3[C@@H](O[C@@H]3O[C@H](CO)[C@@H](O)[C@H](O)[C@H]3O)C[C@]12C", "note": "[ginsenoside Rg1]", "values": [
      {"measurement": "endothelial nitric oxide synthase phosphorylation via Akt", "setting": "[4]", "value": "induces"},
      {"measurement": "proliferation of vascular smooth muscle cells", "setting": "[5]", "value": "inhibits"},
      {"measurement": "TNF-a-induced HASMCs proliferation", "setting": "[6]", "value": "inhibits"}
    ]},
    {"smiles": "O=c1c(-c2ccc(O)cc2)coc2c([C@@H]3O[C@H](CO)[C@@H](O)[C@H](O)[C@H]3O)c(O)ccc12", "note": "[puerarin, Puerarin]", "values": [
      {"measurement": "onset of endothelial progenitor cells senescence", "setting": "[7]", "value": "dose dependently prevents"},
      {"measurement": "proliferation of endothelial progenitor cells", "setting": "[7]", "value": "increases"},
      {"measurement": "pathway of NF-κB and TNF-a", "setting": "NF-κB and TNF-a", "value": "could inhibit"}
    ]},
    {"smiles": "Oc1ccc(C=Cc2cc(O)cc(O)c2)cc1", "note": "[resveratrol, Resveratrol]", "values": [
      {"measurement": "onset of endothelial progenitor cells senescence", "setting": "[8]", "value": "delayed the onset"},
      {"measurement": "telomerase", "setting": "[8]; through the PI3K-Akt signalling pathway", "value": "activation of telomerase"},
      {"measurement": "TNF-a induced changes of adipokines", "setting": "TNF-a [9]", "value": "inhibits"},
      {"measurement": "pro-inflammatory cytokine expression (IL-23p19, IFN-y, TNF-a, IL-6, MCP-1)", "setting": "[10]", "value": "significantly lower"},
      {"measurement": "chronic colonic inflammation", "setting": "[11]", "value": "attenuates"},
      {"measurement": "homocysteine formation", "setting": "[12]", "value": "suppresses"}
    ]}
  ]
}
